Measurements from patent publication US9067911B2, “Piperidine derivatives” (Hoffmann-La Roche Inc., priority 2009, dated 2015).
Counter-ions that a name gives are not always drawn.

Target: T1, mGlyT-1b (Mus musculus, UniProt P28571)
T1 construct: host or cells: Flp-in-CHO
T1 sequence (P28571 1-651 isoform P28571-2): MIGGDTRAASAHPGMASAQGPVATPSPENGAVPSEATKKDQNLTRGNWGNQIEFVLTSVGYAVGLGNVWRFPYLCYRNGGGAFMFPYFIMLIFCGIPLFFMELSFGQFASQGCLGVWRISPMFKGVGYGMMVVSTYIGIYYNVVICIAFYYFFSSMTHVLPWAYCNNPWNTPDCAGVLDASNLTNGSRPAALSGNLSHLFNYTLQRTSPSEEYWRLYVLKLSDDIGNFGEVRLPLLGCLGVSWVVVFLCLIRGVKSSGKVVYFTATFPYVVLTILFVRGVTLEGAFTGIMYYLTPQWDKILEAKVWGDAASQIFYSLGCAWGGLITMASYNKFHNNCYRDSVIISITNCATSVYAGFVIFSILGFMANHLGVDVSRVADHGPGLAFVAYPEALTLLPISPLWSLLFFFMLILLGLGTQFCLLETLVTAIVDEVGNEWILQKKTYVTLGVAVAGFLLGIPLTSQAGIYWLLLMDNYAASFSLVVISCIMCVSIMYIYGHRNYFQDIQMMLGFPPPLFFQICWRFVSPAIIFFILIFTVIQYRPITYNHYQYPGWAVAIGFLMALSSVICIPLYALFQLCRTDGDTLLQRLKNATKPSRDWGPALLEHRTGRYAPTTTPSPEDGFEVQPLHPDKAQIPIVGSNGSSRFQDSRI
Assay: Glycine uptake inhibition assay (mGlyT-1b)
Type: cell-based
Conditions: [3H]-glycine uptake, Flp-in-CHO cells stably transfected with mGlyT1b cDNA, 20 min preincubation at 22° C.
Experimental: Nutrient mixture F-12 (Gibco Life-technologies), fetal bovine serum (FBS) 5%, (Gibco life technologies), Penicillin/Streptomycin 1% (Gibco life technologies), Hygromycin 0.6 mg/ml (Gibco life technologies), Glutamine 1 mM Gibco life technologies)
150 mM NaCl, 10 mM Hepes-Tris, pH 7.4, 1 mM CaCl2, 2.5 mM KCl, 2.5 mM MgSO4, 10 mM (+) D-glucose.
Flp-in™-CHO (Invitrogen Cat n° R758-07) cells stably transfected with mGlyT1b cDNA.
Glycine Uptake Inhibition Assay (mGlyT-1b)
On day 1 mammalian cells, (Flp-in™-CHO), transfected with mGlyT-1b cDNA, were plated at the density of 40,000 cells/well in complete F-12 medium, without hygromycin in 96-well culture plates. On day 2, the medium was aspirated and the cells were washed twice with uptake buffer (UB). The cells were then incubated for 20 min at 22° C. with either (i) no potential competitor, (ii) 10 mM non-radioactive glycine, (iii) a concentration of a potential inhibitor. A range of concentrations of the potential inhibitor was used to generate data for calculating the concentration of inhibitor resulting in 50% of the effect (e.g. IC50, the concentration of the competitor inhibiting glycine uptake of 50%). A solution was then immediately added containing [^3H]-glycine 60 nM (11-16 Ci/mmol) and 25 μM non-radioactive glycine. The plates were incubated with gentle shaking and the reaction was stopped by aspiration of the mixture and washing (three times) with ice-cold UB. The cells were lysed with scintillation liquid, shaken 3 hours and the radioactivity in the cells was counted using a scintillation counter.

IC50 [nM]	SMILES
55.9	COc1cc(C(F)(F)F)cc(SC)c1C(=O)NC1(c2ccncc2)CCCN(C)C1 (racemic) [Example 71, rac-2-Methoxy-6-methylsulfanyl-N-(1-methyl-1,4,5,6-tetrahydro-2H-[3,4′]bipyridinyl-3-yl)-4-trifluoromethyl-benzamide]
68.2	COc1cc(C(F)(F)F)cc(SC)c1C(=O)NC1(c2cccc(C)c2)CCCN(C)C1 (racemic) [Example 96, rac-2-Methoxy-6-methylsulfanyl-N-(1-methyl-3-m-tolyl-piperidin-3-yl)-4-trifluoromethyl-benzamide]
182	COc1cc(C(F)(F)F)cc(SC)c1C(=O)N[C@]1(c2ccccc2)CCCN(C)C1 (stereo in doubt) [Example 37, 2-Methoxy-N-((S)-1-methyl-3-phenyl-piperidin-3-yl)-6-methylsulfanyl-4-trifluoromethyl-benzamide hydrochloride]
77.3	CCc1c(C(=O)NC2(c3ccccc3)CCCN(C)C2)ccc(C(F)(F)F)c1C (racemic) [Example 103, rac-2-Ethyl-3-methyl-N-(1-methyl-3-phenyl-piperidin-3-yl)-4-trifluoromethyl-benzamide formic acid]
58.2	COc1cc(C(F)(F)F)cc(SC)c1C(=O)NC1(c2ccccc2)CC(O)CN(C)C1 (racemic) [Example 51, rac-N-(5-Hydroxy-1-methyl-3-phenyl-piperidin-3-yl)-2-methoxy-6-methylsulfanyl-4-trifluoromethyl-benzamide]
25.9	CCc1cc(C(F)(F)F)ccc1C(=O)NC1(c2ccccc2)CCCN(C)C1 (single isomer, unassigned) [Example 115, 2-Ethyl-N-((R or S)-1-methyl-3-phenyl-piperidin-3-yl)-4-trifluoromethyl-benzamide hydrochloride]
17.3	COc1cc(C(F)(F)F)cc(SC)c1C(=O)NC1(c2ccccc2)CCC(C)(C)N(C)C1 (racemic) [Example 84, rac-2-Methoxy-6-methylsulfanyl-4-trifluoromethyl-N-(1,6,6-trimethyl-3-phenyl-piperidin-3-yl)-benzamide hydrochloride]
31.2	COc1cc(C(F)(F)F)cc(SC)c1C(=O)N[C@@]1(c2ccccc2)C[C@H](O)CN(C)C1 (racemic) [Example 107, N-((3R,5S) or (3S,5R)-5-Hydroxy-1-methyl-3-phenyl-piperidin-3-yl)-2-methoxy-6-methylsulfanyl-4-trifluoromethyl-benzamide hydrochloride]
146	COc1cc(C(F)(F)F)cc(SC)c1C(=O)NC1(c2ccc(F)cc2Cl)CCCN(C)C1 (racemic) [Example 88, rac-N-[3-(2-Chloro-4-fluoro-phenyl)-1-methyl-piperidin-3-yl]-2-methoxy-6-methylsulfanyl-4-trifluoromethyl-benzamide]
169	COc1ccc(C2(NC(=O)c3c(OC)cc(C(F)(F)F)cc3SC)CCCN(C)C2)cc1 (racemic) [Example 46, rac-2-Methoxy-N-[3-(4-methoxy-phenyl)-1-methyl-piperidin-3-yl]-6-methylsulfanyl-4-trifluoromethyl-benzamide]
173	COc1cc(C(F)(F)F)cc(SC)c1C(=O)NC1(c2ccccc2)CCCN(C(C)(C)C)C1 (racemic) [Example 104, rac-N-(1-tert-Butyl-3-phenyl-piperidin-3-yl)-2-methoxy-6-methylsulfanyl-4-trifluoromethyl-benzamide]
71.5	COCO[C@@H]1CN(C)C[C@](NC(=O)c2c(OC)cc(C(F)(F)F)cc2SC)(c2ccccc2)C1 (racemic) [Example 86, 2-Methoxy-N-((3RS,5SR)-5-methoxymethoxy-1-methyl-3-phenyl-piperidin-3-yl)-6-methylsulfanyl-4-trifluoromethyl-benzamide]
92.9	CO[C@@H]1CN(C)C[C@](NC(=O)c2ccc(C(F)(F)F)cc2C2CC2)(c2ccccc2)C1 (racemic) [Example 76, 2-Cyclopropyl-N-((3RS,5SR)-5-methoxy-1-methyl-3-phenyl-piperidin-3-yl)-4-trifluoromethyl-benzamide]
88.1	CCc1cc(C(F)(F)F)ccc1C(=O)N[C@@]1(c2ccccc2)C[C@H](OC)CN(C)C1 (racemic) [Example 77, 2-Ethyl-N-((3RS,5SR)-5-methoxy-1-methyl-3-phenyl-piperidin-3-yl)-4-trifluoromethyl-benzamide]
67.2	CSc1cc(C(F)(F)F)ccc1C(=O)NC1(c2ccccc2)CCCN(C)C1 (racemic) [Example 19, rac-N-(1-Methyl-3-phenyl-piperidin-3-yl)-2-methylsulfanyl-4-trifluoromethyl-benzamide]
13.9	COc1cc(C(F)(F)F)cc(SC)c1C(=O)N[C@@]1(c2ccccc2)CC[C@@H](C)N(C)C1 (single isomer, unassigned) [Example 119, N-((3R,6R) or (3S,6S)-1,6-Dimethyl-3-phenyl-piperidin-3-yl)-2-methoxy-6-methylsulfanyl-4-trifluoromethyl-benzamide]
176	COc1cc(C(F)(F)F)cc(OC)c1C(=O)NC1(c2ccccc2)CCCN(C)C1 (racemic) [Example 80, rac-2,6-Dimethoxy-N-(1-methyl-3-phenyl-piperidin-3-yl)-4-trifluoromethyl-benzamide]
85.4	COc1cc(C(F)(F)F)cc(Br)c1C(=O)NC1(c2ccccc2)CCCN(C)C1 (racemic) [Example 7, rac-2-Bromo-6-methoxy-N-(1-methyl-3-phenyl-piperidin-3-yl)-4-trifluoromethyl-benzamide]
197	CC(C)c1cc(C(F)(F)F)ccc1C(=O)NC1(c2ccccc2)CCCN(C)C1 (racemic) [Example 70, rac-2-Isopropyl-N-(1-methyl-3-phenyl-piperidin-3-yl)-4-trifluoromethyl-benzamide hydrochloride]
22.7	CN1CCC[C@@](NC(=O)c2ccc(C(F)(F)F)cc2C2CC2)(c2ccccc2)C1 (stereo in doubt) [Example 57, 2-Cyclopropyl-N-((R)-1-methyl-3-phenyl-piperidin-3-yl)-4-trifluoromethyl-benzamide hydrochloride]
26.4	CCc1cc(C(F)(F)F)ccc1C(=O)NC1(c2ccccc2)CCCN(C)C1 (racemic) [Example 4, rac-2-Ethyl-N-(1-methyl-3-phenyl-piperidin-3-yl)-4-trifluoromethyl-benzamide]
39.6	COc1cc(C(F)(F)F)cc(SC)c1C(=O)NC1(c2cccc(Br)c2)CCCN(C)C1 (racemic) [Example 87, rac-N-[3-(3-Bromo-phenyl)-1-methyl-piperidin-3-yl]-2-methoxy-6-methylsulfanyl-4-trifluoromethyl-benzamide hydrochloride]
12.7	COc1cc(C(F)(F)F)cc(SC)c1C(=O)N[C@@]1(c2ccccc2)CC[C@H](C)N(C)C1 (single isomer, unassigned) [Example 120, N-((3R,6S) or (3S,6R)-1,6-Dimethyl-3-phenyl-piperidin-3-yl)-2-methoxy-6-methylsulfanyl-4-trifluoromethyl-benzamide]
